Source: US8067424B2, “Selective inhibitors for cyclin-dependent kinases” (Emory University, priority 2007, dated 2011)
Like-named read-outs stand apart in the source and are kept apart here.

What was measured:
[1] = biological target: T1, CDK7 complex (CDK7, Cyclin H, MAT1) (Homo sapiens, UniProt P50613); experiment: CDK7/CycH/MAT1 trimeric complex kinase assay (PKLight luciferase); assay type: biochemical; settings: for IC50: Table 2; for remaining activity at 0.1 µM / CDK7 % remaining kinase activity after incubation with 100 nM of compound: 100 nM, mean of three (standard deviation); for remaining activity at 0.1 µM: read-out: CDK7 % remaining kinase activity after incubation with 100 nM of compound
T1 construct: purchased Proqinase GmbH, Germany
Description: (§1) Prepared test compounds, prepared at concentrations of 1000, 100, 10, 1 and 0.1 μM. Diluted 1 in 40 in ddH2O and added 1 μl of test compound or DMSO (controls). • 3. Incubated at 30° C. for 30 mins in a water bath. • 4. Added 10 µl of ATP […] per reaction to get a final concentration of 2 μM ATP. • 5. Made up to 25 μl total volume with ddH2O • 6. Incubated for 20 min at 30° C. in a water bath • 7. Used the PKLight Kinase assay (Cambrex, UK), add to each reaction 10 μl of stop reaction and mix thoroughly. Incubated at room temp for 10 min. • 8. Added 20 μ1 Luciferase reaction mixture (Cambrex, UK) per reaction, and further incubated at room temp for 10 mins and determined luciferase activities according to manufacturer's methods. Kinase reactions were added to 96 well microplates and luciferase activities determined using a Packard TopCount NXT™ luminescent counter (TopCount 9904). The luminometer was programmed to take a read time of 0.1 integrated reading and emission of light was detectable at 560 nm. • 9. All kinase inhibition assays were carried out in triplicate. As the bioluminescent signal is inversely proportional to kinase activity, all values were deducted from the no enzyme control. These values were then plotted utilizing the enzyme control as a reference to 100% activity and compared to all other values.

CDK9/cyclin T complex = biological target: T2, CDK9/cyclin T complex (Homo sapiens, UniProt P50750); experiment: CDK9/cyclin T kinase assay (as for CDK7); assay type: biochemical; settings: Table 2; read-out: CDK9 IC50
T2 construct: purchased Proqinase GmbH, Germany
Description: as §1
(§2) Inhibition of CDK2 was assessed using 50 ng CDK2/cyclin A complex (Proqinase GmbH, Germany), as above for CDK7 Inhibition of CDK9 was assessed using 100 ng CDK9/cyclin T complex (Proqinase GmbH, Germany), as above for CDK7.

CDK2/cyclin A complex = biological target: T3, CDK2/cyclin A complex (Homo sapiens, UniProt P24941); experiment: CDK2/cyclin A kinase assay (as for CDK7); assay type: biochemical; settings: for IC50: Table 2, read-out: CDK2 IC50; for remaining activity at 0.1 µM: read-out: CDK2 % remaining kinase activity after incubation with 100 nM of compound
T3 construct: purchased Proqinase GmbH, Germany
Description: as §1, §2

MCF-7 cell line = experiment: cells; assay type: cell-based; settings: MCF-7, SRB assay, 24 hours; for IC (total growth inhibition): read-out: TGI; for IC50: mean of three experiments, read-out: IC50
Description: In the SRB assay, sixteen hours following seeding of 3×10^3 MCF-7 cells in 96-well plates in DMEM containing 10% FCS, the medium was replaced with fresh medium supplemented with the compound of interest, or an equivalent volume of the vehicle control (DMSO), at concentrations, ranging from 0.1 to 100 μM. The compounds were added to three well to provide replicates. The cells were fixed after 24 hours, using 40% (w/v) TCA, for one hour at 4° C., washed five times with distilled, deionised H2O, followed by incubation with 0.4% (w/v) sulphorhodamine B (SRB) in 1% acetic acid for one hour at room temperature. Excess dye was removed with five washes with 1% acetic acid and drying at room temperature. Absorbance at 480 nm was determined following solubilisation of the dye by the addition of 100 μl of 10 mM Tris base to each well.
SRB values (absorbance at 480 nm) for the vehicle control (DMSO) were set at 100% and absorbance at 480 nm for the compound treatments were calculated relative to the control.

[2] = 100 nM, mean of three (standard deviation)

T1 sequence (P50613 whole entry): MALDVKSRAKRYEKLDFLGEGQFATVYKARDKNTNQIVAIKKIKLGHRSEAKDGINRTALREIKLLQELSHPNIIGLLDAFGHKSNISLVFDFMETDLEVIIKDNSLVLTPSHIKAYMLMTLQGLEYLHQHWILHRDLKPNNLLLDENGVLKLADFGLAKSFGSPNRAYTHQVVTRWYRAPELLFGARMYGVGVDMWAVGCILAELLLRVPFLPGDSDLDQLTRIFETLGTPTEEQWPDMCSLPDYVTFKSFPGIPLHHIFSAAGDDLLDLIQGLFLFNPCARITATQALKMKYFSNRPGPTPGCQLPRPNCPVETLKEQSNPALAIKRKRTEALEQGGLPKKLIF
T1 sequence (P51946 whole entry partner): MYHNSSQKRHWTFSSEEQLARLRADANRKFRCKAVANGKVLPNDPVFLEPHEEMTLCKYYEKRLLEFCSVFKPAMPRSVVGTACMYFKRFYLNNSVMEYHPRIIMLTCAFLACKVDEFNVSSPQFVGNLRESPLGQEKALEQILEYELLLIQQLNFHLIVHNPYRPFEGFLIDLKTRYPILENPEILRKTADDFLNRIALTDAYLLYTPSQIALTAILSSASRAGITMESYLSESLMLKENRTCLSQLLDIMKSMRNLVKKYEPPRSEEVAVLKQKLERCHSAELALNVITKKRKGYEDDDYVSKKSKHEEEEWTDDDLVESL
T1 sequence (P51948 whole entry partner): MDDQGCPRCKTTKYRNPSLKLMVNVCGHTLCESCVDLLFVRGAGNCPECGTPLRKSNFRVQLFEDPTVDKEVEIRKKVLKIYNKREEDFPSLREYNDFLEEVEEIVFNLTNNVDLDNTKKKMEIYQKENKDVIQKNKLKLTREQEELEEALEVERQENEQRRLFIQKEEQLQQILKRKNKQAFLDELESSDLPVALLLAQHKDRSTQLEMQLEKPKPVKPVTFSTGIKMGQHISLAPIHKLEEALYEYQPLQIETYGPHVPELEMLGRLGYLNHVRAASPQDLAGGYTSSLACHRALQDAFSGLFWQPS
T2 sequence (P50750 whole entry): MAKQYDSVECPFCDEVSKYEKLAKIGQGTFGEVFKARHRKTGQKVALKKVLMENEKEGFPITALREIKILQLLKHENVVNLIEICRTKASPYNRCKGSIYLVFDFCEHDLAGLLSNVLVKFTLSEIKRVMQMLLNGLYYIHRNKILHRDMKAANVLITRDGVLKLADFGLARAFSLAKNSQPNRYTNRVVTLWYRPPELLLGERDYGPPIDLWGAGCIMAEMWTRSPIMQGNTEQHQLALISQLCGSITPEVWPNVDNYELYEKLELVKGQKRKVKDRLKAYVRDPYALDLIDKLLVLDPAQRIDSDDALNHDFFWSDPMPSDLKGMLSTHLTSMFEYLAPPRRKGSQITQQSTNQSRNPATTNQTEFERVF
T2 sequence (O60563 whole entry partner): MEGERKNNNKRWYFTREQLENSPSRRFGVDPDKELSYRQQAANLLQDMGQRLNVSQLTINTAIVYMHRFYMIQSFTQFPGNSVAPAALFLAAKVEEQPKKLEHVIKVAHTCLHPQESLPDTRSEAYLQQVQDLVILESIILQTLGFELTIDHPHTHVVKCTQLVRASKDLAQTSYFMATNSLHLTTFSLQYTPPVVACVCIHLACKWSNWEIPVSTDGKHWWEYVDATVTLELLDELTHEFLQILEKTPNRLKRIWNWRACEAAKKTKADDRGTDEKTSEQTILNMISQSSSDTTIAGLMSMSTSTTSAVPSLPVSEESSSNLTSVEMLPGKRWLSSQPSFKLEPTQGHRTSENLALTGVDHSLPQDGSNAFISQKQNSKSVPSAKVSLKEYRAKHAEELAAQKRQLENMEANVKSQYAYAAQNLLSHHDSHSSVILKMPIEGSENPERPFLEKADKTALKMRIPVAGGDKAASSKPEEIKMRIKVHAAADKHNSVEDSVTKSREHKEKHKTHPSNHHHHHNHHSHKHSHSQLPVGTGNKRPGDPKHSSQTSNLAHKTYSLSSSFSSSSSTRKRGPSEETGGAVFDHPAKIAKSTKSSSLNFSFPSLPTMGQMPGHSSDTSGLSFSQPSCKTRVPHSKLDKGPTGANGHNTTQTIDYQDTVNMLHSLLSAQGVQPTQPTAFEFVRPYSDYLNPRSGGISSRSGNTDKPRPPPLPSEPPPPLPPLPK

Row | Structure (SMILES) | IC50 [1] [µM] | IC50 (CDK9/cyclin T complex) [µM] | IC50 (CDK2/cyclin A complex) [µM] | remaining activity at 0.1 µM [1] [%] | remaining activity at 0.1 µM (CDK2/cyclin A complex; [2]) [%] | LC50 (concentration causing 50% net cell kill) (MCF-7 cell line; Homo sapiens, MCF7, 24 h) [µM] | IC (total growth inhibition) (MCF-7 cell line; Homo sapiens, MCF7, 24 h) [µM] | IC50 (MCF-7 cell line; Homo sapiens, MCF7) [µM] | further results
1 | CC(C)Nc1cc(NCc2ccccc2)n2ncc(C(C)C)c2n1 [Example 2, N^7-Benzyl-N^5,3-diisopropylpyrazolo[1,5-a]pyrimidine-5,7-diamine] | > 1 | > 1 | ~0.1 |  |  |  |  |  | 
2 | CC(C)c1cnn2c(NCc3ccccc3)cc(NCCOCCO)nc12 [Example 3, 2-(2-(7-(Benzylamino)-3-isopropylpyrazolo[1,5-a]pyrimidin-5-ylamino)ethoxy)ethanol] | 0.032 | ~0.1 | > 1 |  |  |  |  |  | 
3 | CC[C@H](CO)Nc1cc(NCc2ccccc2)n2ncc(C(C)C)c2n1 [Example 6] | 0.07 | ~0.1 | > 1 |  |  |  |  |  | 
4 | CC(C)c1cnn2c(NCc3ccccc3F)cc(N[C@@H](CO)CCCCCCN)nc12 [Example 12] | ~0.1 | 0.1 to 1 | > 1 |  |  |  |  |  | 
5 | CC(C)c1cnn2c(NCc3ccccc3)cc(Cl)nc12 [ICEC0006, N-Benzyl-5-chloro-3-isopropylpyrazolo[1,5-a]pyrimidin-7-amine] |  |  |  | 65 | 75 | 139 | > 200 | > 200 | 
6 | CC(C)c1cnn2c(NCc3ccccc3F)cc(N[C@H](/C=C\CCC#Cc3ccc(F)cc3)CO)nc12 [ICEC0206] |  |  |  | 81 |  | 174 | > 200 | > 200 | 
7 | CC(C)c1cnn2c(NCc3ccccc3F)cc(NCCCCCCc3cccnc3)nc12 [ICEC0207] |  |  |  | 73 |  | 53 | 111 | > 200 | 
8 | CC(C)c1cnn2c(NCc3ccccc3)cc(NCCCCCCc3ccc(N)nc3)nc12 [ICEC0210] |  |  |  | 81 | 97 |  |  |  | 
9 | CC(C)c1cnn2c(NCc3ccccc3F)cc(NCCCCCCc3ccc(N)nc3)nc12 [ICEC0211] |  |  |  | 83 | 96 | 39 | 79 | > 200 | 
10 | CC(C)c1cnn2c(NCc3ccccc3F)cc(NCCCCCCCNS(C)(=O)=O)nc12 [ICEC0212] |  |  |  | 63 | 91 | 41 | 71 | 192 | 
11 | CC(C)c1cnn2c(NCc3ccccc3F)cc(NCC3CCC(CN)CC3)nc12 (stereo not shown) [ICEC0213] |  |  |  |  | 90 |  | 119 | > 200 | CDK7 % remaining kinase activity after incubation with 100 nM of compound [1]: 81% (0.2); LC50 (concentration causing 50% net cell kill) (MCF-7 cell line): 31 µM
12 | CC(C)c1cnn2c(NCc3ccccc3F)cc(NCC3CCC(CN)CC3)nc12 (stereo not shown) [ICEC0214] |  |  |  |  |  |  |  |  | CDK7 % remaining kinase activity after incubation with 100 nM of compound [1]: 60% (5.1); CDK2 % remaining kinase activity after incubation with 100 nM of compound (CDK2/cyclin A complex; [2]): 74% (3.3); LC50 (concentration causing 50% net cell kill) (MCF-7 cell line): 140 µM; IC50 (MCF-7 cell line): > 200 µM; IC (total growth inhibition) (MCF-7 cell line): >200 µM
13 | CC(C)c1cnn2c(NCc3ccccc3)cc(NCCN3CCNCC3)nc12 [ICEC0216] |  |  |  | 50 | 68 | 26 | 42 | > 200 | 
